Source: ChEMBL document CHEMBL1629579, “Correlating echinocandin MIC and kinetic inhibition of fks1 mutant glucan synthases for Candida albicans: implications for interpretive breakpoints” (Antimicrob Agents Chemother, 2009)
Numbered stars: 1 amine (or outer) side, 2 acyl side, 3 side chain; on linkers, the order of the positions; unused ones are H or OH. Bridge positions count the residues as written; N and C are the ends. Square brackets hold non-standard residues; d marks the D form. Peptide text beside a SMILES is read from it. * marks the point of attachment. pTerphenylCO(4''-OnC5H11) = CCCCCOc1ccc(-c2ccc(-c3ccc(C(=O)*)cc3)cc2)cc1; Orn(4R-OH,5R-OH) = O=C([C@H](C[C@@H](O)[C@@H](O)N[*:3])N[*:1])[*:2]; hTyr(3S-OH,4S-OH) = N[C@H](C(=O)O)[C@H](O)[C@@H](O)c1ccc(O)cc1; Pro(3S-OH,4S-Me) = C[C@H]1CN[C@H](C(=O)O)[C@H]1O; Hyp = O=C(O)[C@@H]1C[C@@H](O)CN1

What was measured:
[1] = test system: Candida albicans; assay: Selectivity ratio of Ki for Candida albicans 5415 1,3-beta-D-glucan synthase subunit FKS1p T1933C mutant to Ki for Candida albicans SC5314 wild type 1,3-beta-D-glucan synthase subunit FKS1p
[2] = test system: Candida albicans; assay: Selectivity ratio of Ki for Candida albicans 85 1,3-beta-D-glucan synthase subunit FKS1p C1934T mutant to Ki for Candida albicans SC5314 wild type 1,3-beta-D-glucan synthase subunit FKS1p
[3] = test system: Candida albicans; assay: Selectivity ratio of Ki for Candida albicans 90 1,3-beta-D-glucan synthase subunit FKS1p G4082R mutant to Ki for Candida albicans SC5314 wild type 1,3-beta-D-glucan synthase subunit FKS1p

Measured: Ratio Ki

CCCCCOc1ccc(-c2ccc(-c3ccc(C(=O)N[C@H]4C[C@@H](O)[C@@H](O)NC(=O)[C@@H]5[C@@H](O)[C@@H](C)CN5C(=O)[C@H]([C@@H](C)O)NC(=O)[C@H]([C@H](O)[C@@H](O)c5ccc(O)cc5)NC(=O)[C@@H]5C[C@@H](O)CN5C(=O)[C@H]([C@@H](C)O)NC4=O)cc3)cc2)cc1 [ANIDULAFUNGIN] ({pTerphenylCO(4''-OnC5H11)}-[Orn(4R-OH,5R-OH)]T[Hyp][hTyr(3S-OH,4S-OH)]T[Pro(3S-OH,4S-Me)]; lactam 1-C)
> 100: [1] | [2] | [3]
